Consider ten molecules from publication PMC8049054, “Systematic Assessment of Fragment Identification for Multitarget Drug Design” (Chemmedchem, 2021).

For test [1], the system named is T1, farnesoid X receptor (FXR).
T1 construct: made in house; host or cells: E. coli BL21 (DE3)
In words: Differential scanning fluorimetry (DSF) screen on FXR. Type of test: binding, human. Particulars: 500 μM fragment, mean of duplicates. From the text:
For the primary screen of this fragment library, we employed differential scanning fluorimetry (DSF, also known as thermal shift). DSF is generally applicable to a large panel of protein targets and provides a robust, low‐cost screening technology for fragment‐based approaches. ^[20] […] We performed an initial fragment screen on all five targets by DSF.
Figure S3: SDS page of the purified proteins (proteins RXRα and FXR after TEV cleavage) using a 14% polyacrylamide gel, which was stained with coomassi. Precision Plus Protein™ Unstained Protein Standard s (Bio-Rad Laboratories, Inc. ) was used […]
All experiments were performed as duplicates using MicroAmp fast 96 -well plates. Each plate contained 80 different compound wells and 16 DMSO control wells. First 0.8 µl of a 25 mM Preswick Library Fragment dilution in DMSO or pure DMSO were placed in each of the well (final concentration 500 µM). Then 39.2 µl of the master mi x (containing protein, Triton x -100, SYPRO® Orange Protein Gel Stain and buffer that corresponds to the tested protein) were added.
Table S4: Final concentrations in DSF experiments:
Protein Final concentrations under screening conditions
The measurements were performed using a iCycler iQ™ Single -Color Real Time PCR device with a heat rate of 1 °C per min, an excitation wavelength of 490 nm and an emission wavelength of 570 nm. The first derivation calculated by MyiQ Op tical Software 1.0 was analyzed using Microsoft Office Excel 2013 by comparing the maxima. A shift of 1 °C (in case of 5 -LOX 0.9°C) or more compared to the DMSO control were assumed as potentially binding of the fragment.
(1 picture or pasted object on this page, not shown here)
In general terms: In DSF a fluorescence change marks the thermal transition of the protein.

The target in test [2] is T2, soluble epoxide hydrolase (sEH) (Homo sapiens, UniProt P34913).
T2 construct: made in house; host or cells: E. coli BL21 (DE3)
T2 sequence (P34913 1-555): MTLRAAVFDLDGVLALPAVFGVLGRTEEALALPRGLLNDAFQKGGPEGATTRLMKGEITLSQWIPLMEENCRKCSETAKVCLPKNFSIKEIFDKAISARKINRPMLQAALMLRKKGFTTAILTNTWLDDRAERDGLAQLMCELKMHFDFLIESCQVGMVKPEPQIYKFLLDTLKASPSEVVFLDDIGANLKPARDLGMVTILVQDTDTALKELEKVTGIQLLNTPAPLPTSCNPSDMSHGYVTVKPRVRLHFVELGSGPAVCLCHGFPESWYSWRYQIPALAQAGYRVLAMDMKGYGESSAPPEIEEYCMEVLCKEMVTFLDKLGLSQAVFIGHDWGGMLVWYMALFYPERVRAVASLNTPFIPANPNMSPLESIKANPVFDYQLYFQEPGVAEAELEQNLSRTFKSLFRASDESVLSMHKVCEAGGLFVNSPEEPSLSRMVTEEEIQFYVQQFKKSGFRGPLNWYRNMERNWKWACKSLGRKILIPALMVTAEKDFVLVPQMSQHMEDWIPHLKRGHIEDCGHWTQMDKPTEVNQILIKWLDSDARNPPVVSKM
Put plainly: sEH-H activity assay (fluorogenic substrate PHOME). Type of test: biochemical. Particulars: for sEH LE: ligand efficiency calculated from IC50; for IC50: mean±standard deviation of three independent experiments. Here is the method:
For hit validation, we employed secondary assays with orthogonal readouts to confirm fragment activities. Biochemical activity assays were chosen for the enzymes sEH, LTA4H, and 5‐LOX. […] RXRα and FXR modulation was assessed in cell‐based hybrid reporter gene assays. All ten compounds were tested at a single concentration of 500 μM in the sEH and LTA4H activity assays and with a concentration of 100 μM on 5‐LOX, RXRα, and FXR. Fragments showing an inhibition greater than 50 % (sEH‐H and LTA4H) or greater than 70 % (5‐LOX) as well as the hits determined in the DSF experiments were further characterized in full concentration‐response curves between 0.1 and 1000 μM. […] As alternative cell‐free assay we employed isothermal titration calorimetry (ITC) to determine binding affinity of the fragments towards the LBDs of both nuclear receptors. ITC was performed with a protein concentration of 50 μM and compound concentrations of 250 μM.
The 10 fragments showing dual activity in the DSF experiments were validated by functional assay screening with a fixed concentration of 500 µM in case of sEH-H and LTA4H, 100 µM in case of 5-LOX and 30 µM, 10 µM and 5 µM in case of FXR and […]
% (5-LOX) as well as the hits determined in the DSF experiments were further measured with concentrations between 1000 µM and 0.1 µM (sEH-H and LTA4H) and between 300 µM and 1 µM (5-LOX). The sEH and LTA4H activity assays were performed as triplicate and repeated 3 times. The 5-LOX activity assay was performed with one point per concentration and repeated 3 times Raw data was first analyzed in Microsoft Office Excel (2013), before IC50 curves were plotted and further analyzed using GraphPad Prism 7 and GraphPad Prism 8 for the shown graphs .
The eight approved drugs were measured in the orthogonal assay systems analogous to the fragments. The approved drugs were […]
For the sEH-H and LTA4H, they were measured as triplicate in concentrations between 1000 µM and 1 µM and each measurement was repeated three times. For the 5-LOX they were measured as single point measurement in three different experiments with concentrations between 300 µM and 1 µM. For […]
Raw data was processed according to the fragments.
The sEH-H activity assay was performed adapted from Hahn et al.5 and Lukin et al.6. In short 1 µl of compound dilution in DMSO or pure DMSO (for the positive and negative control) was placed in a black 96-well plate (Thermo Scientific™ Nunc™ F96 MicroWell™ Black Polystyrene Plate) and then 89 µl of protein-mix or buffer mix (without protein as negative control) were added and the mixture was incubated for 30 min at room temperature. 10 µl of 0.6 mM 3-phenyl-cyano(6-methoxy-2-naphthalenyl)methylester-2-oxiraneacetic acid (PHOME) were added to every well. The Plate was measured every minute for 45 min. Final concentration per well was 3 nM sEH-Fl, 0.001 % Triton X-100, 25 mM Bis-tris, 0.1 mg/ml BSA, pH = 7.0, 1.6% DMSO […]

Marks after values point to notes of the source that are not given here.

The IC50 is the point on the concentration scale where inhibition reaches its midpoint. Consider `CCCCOc1cc(C(=O)OC)ccc1N` [Compound 3], for which the “DSF/ΔT m FXR” value in test [1] worked out at 1.4±0.7 °C. In addition, in test [2], the “sEH LE” value was less than 0.3 kcal/mol and the IC50 was more than 300 µM.
As for `Clc1ccc2c(c1)Nc1ccccc1CC2` [Compound 8], in test [2], the “sEH LE” value is listed as 0.33 kcal/mol and the half-maximal inhibitory concentration (IC50) worked out at 141 ± 34.1 µM.
With `Oc1ccc(-c2ccc(F)cc2F)cc1` [Compound 9], in test [1], the “DSF/ΔT m FXR” value is 21.7±3.5 ^[a] °C. For the same molecule, in test [2], the “sEH LE” value is on record as 0.36 kcal/mol and the IC50 was determined as 108 ± 11 µM.
For `Fc1ccc(-c2c[nH]c3ccccc23)cc1` [Compound 10], the “DSF/ΔT m FXR” value in test [1] is −11.6±2.1 °C. For the same molecule, in test [2], the “sEH LE” value was 0.33 kcal/mol and the IC50 worked out at 120 ± 22.4 µM.
`Oc1ccc(Cc2ccccc2)cc1` [Compound 4]: in test [2], the half-maximal inhibitory concentration (IC50) was 151 ± 5.8 µM.
Take `Cc1cc(=O)n(-c2ccc(C)c(C)c2)[nH]1` [Compound 2]: in test [1], the “DSF/ΔT m FXR” value amounted to 0.3±0.0 °C. Besides, in test [2], the “sEH LE” value is listed as 0.35 kcal/mol and the concentration for half-maximal inhibition (IC50) was 135 ± 9.1 µM.
As to `Oc1ccc2cc[nH]c2c1` [Compound 5], the “DSF/ΔT m FXR” value in test [1] amounted to 1.2±0.0 °C.
In the case of `c1ccc(N2CCNCC2)nc1` [Compound 1], the “DSF/ΔT m FXR” value in test [1] was −0.1±0.0 °C.
In the case of `Cc1ccccc1C(=O)Nc1ccccc1` [Compound 6], the “DSF/ΔT m FXR” value in test [1] is −1.2±0.7 °C. In test [2], the “sEH LE” value was 0.31 kcal/mol and the half-inhibitory concentration (IC50) is 226 ± 18.5 µM.
Regarding `CCN(Cc1ccccc1)c1ccccc1` [Compound 7], the IC50 in test [2] was found to be 56.6 ± 5.4 µM.
